According to patent US20110190269A1, “GAMMA SECRETASE MODULATORS” (priority 2010, published 2011):

Test system: γ-secretase
Assay: Cellular γ-secretase assay (inhibition of Aβ42 secretion)
Type: cell-based
Settings: human neuroglioma H4 cells overexpressing human APP, 22 hrs incubation
Method: Human neuroglioma H4 cells overexpressing human APP were plated at 30,000 cells/well/[…] in 96-well plates in IMDM media containing 10% FCS, […] Hygromycin B and incubated for 2 h at 37° C., 5% CO2 prior to adding test compounds.
Compounds for testing were dissolved in 100% Me2SO yielding in a 10 mM stock solution. Typically […] of these solutions were further diluted in 1000 μl of IMDM media (w/o FCS). Subsequent 1:1 dilutions gave a ten point dose response curve. 100 μl of each dilution was added to the cells in 96-well plates. Appropriate controls using vehicle only and reference compound were applied to this assay. The final concentration of Me2S0 was 0.4%.
After incubation for 22 hrs at 37° C., 5% CO2, 50 μl supernatant was transferred into round-bottom 96-well polypropylene plates for detection of Aβ42. 50 μl assay buffer (50 mM Tris/Cl, pH 7.4, 60 mM NaCl, 0.5% BSA, 1% TWEEN 20) was added to the wells followed by the addition of 100 μl of detection antibody (ruthenylated BAP15 0.0625 μg/ml in assay buffer). 50 μl of a premix of capture antibody (biotinylated 6E10 antibody, 1 μg/ml) and Steptavidin-coated magnetic beads (Dynal M-280, 0.125 mg/ml) were preincubated for 1 hr at room temperature before adding the assay plates. Assay plates were incubated on a shaker for 3 hrs at room temperature and finally read in the Bioveris M8 Analyser according to the manufacturer's instructions (Bioveris).
IC50 values for inhibition of Aβ42 secretion were calculated by nonlinear regression fit analysis using XLfit 4.0 software (IDBS).

Row | Structure (SMILES) | EC50 [nM]
1 | COc1cc(Nc2nc3cccc(N4CCCCCC4)n3n2)ccc1-n1cnc(C)c1 [Example 31, (5-Azepan-1-yl-[1,2,4]triazolo[1,5-a]pyridin-2-yl)-[3-methoxy-4-(4-methyl-imidazol-1-yl)-phenyl]-amine] | 587
2 | CCCc1ncc(CN2CCOCC2)c2nc(Nc3ccc(-n4cnc(C)c4)c(OC)c3)nn12 [Example 32, [3-Methoxy-4-(4-methyl-imidazol-1-yl)-phenyl]-(8-morpholin-4-ylmethyl-5-propyl-[1,2,4]triazolo[1,5-c]pyrimidin-2-yl)-amine] | 864
3 | COc1cc(Nc2nc3cccc(N4CCCCC4)n3n2)ccc1-n1cnc(C)c1 [Example 33, [3-Methoxy-4-(4-methyl-imidazol-1-yl)-phenyl]-(5-piperidin-1-yl-[1,2,4]triazolo[1,5-a]pyridin-2-yl)-amine] | 556
4 | CCN(CC)c1cccc2nc(Nc3ccc(-n4cnc(C)c4)c(OC)c3)nn12 [Example 34, N5,N5-Diethyl-N2-[3-methoxy-4-(4-methyl-imidazol-1-yl)-phenyl]-[1,2,4]triazolo[1,5-a]pyridine-2,5-diamine] | 640
5 | COc1cc(Nc2nc3nccc(-c4ccc(C#N)cc4)n3n2)ccc1-n1cnc(C)c1 [Example 35, 4-{2-[3-Methoxy-4-(4-methyl-imidazol-1-yl)-phenylamino]-[1,2,4]triazolo[1,5-a]pyrimidin-7-yl}-benzonitrile] | 5930
6 | COc1cc(Nc2nc3nccc(-c4ccc(C(F)(F)F)cc4)n3n2)ccc1-n1cnc(C)c1 [Example 36, [3-Methoxy-4-(4-methyl-imidazol-1-yl)-phenyl]-[7-(4-trifluoromethyl-phenyl)-[1,2,4]triazolo[1,5-a]pyrimidin-2-yl]-amine] | 573
7 | COc1cc(Nc2nc3ncc(C#N)c(-c4ccccc4)n3n2)ccc1-n1cnc(C)c1 [Example 37, 2-[3-Methoxy-4-(4-methyl-imidazol-1-yl)-phenylamino]-7-phenyl-[1,2,4]triazolo[1,5-a]pyrimidine-6-carbonitrile] | 260
8 | COc1cc(Nc2nc3ncc(C#N)c(-c4ccccc4Cl)n3n2)ccc1-n1cnc(C)c1 [Example 38, 7-(2-Chloro-phenyl)-2-[3-methoxy-4-(4-methyl-imidazol-1-yl)-phenylamino]-[1,2,4]triazolo[1,5-a]pyrimidine-6-carbonitrile] | 578
9 | COc1cc(Nc2nc3ncc(C#N)c(-c4ccc(Cl)cc4)n3n2)ccc1-n1cnc(C)c1 [Example 39, 7-(4-Chloro-phenyl)-2-[3-methoxy-4-(4-methyl-imidazol-1-yl)-phenylamino]-[1,2,4]triazolo[1,5-a]pyrimidine-6-carbonitrile] | 145
10 | COc1cc(Nc2nc3ncc(C#N)c(-c4cccc(C)c4)n3n2)ccc1-n1cnc(C)c1 [Example 40, 2-[3-Methoxy-4-(4-methyl-imidazol-1-yl)-phenylamino]-7-m-tolyl-[1,2,4]triazolo[1,5-a]pyrimidine-6-carbonitrile] | 417
11 | COc1cc(Nc2nc3nc(C(F)(F)F)cc(-c4cnccn4)n3n2)ccc1-n1cnc(C)c1 [Example 41, [3-Methoxy-4-(4-methyl-imidazol-1-yl)-phenyl]-(7-pyrazin-2-yl-5-trifluoromethyl-[1,2,4]triazolo[1,5-a]pyrimidin-2-yl)-amine] | 4310
12 | COc1ccc2nc(Nc3ccc(-n4cnc(C)c4)c(OC)c3)nn2n1 [Example 42, [3-Methoxy-4-(4-methyl-imidazol-1-yl)-phenyl]-(6-methoxy-[1,2,4]triazolo[1,5-b]pyridazin-2-yl)-amine] | 1320
13 | COc1cc(Nc2nc3c(OCc4ccccc4)cccn3n2)ccc1-n1cnc(C)c1 [Example 43, (8-Benzyloxy-[1,2,4]triazolo[1,5-a]pyridin-2-yl)-[3-methoxy-4-(4-methyl-imidazol-1-yl)-phenyl]-amine] | 680
14 | COc1cc(Nc2nc3c(Cl)cc(Cl)cn3n2)ccc1-n1cnc(C)c1 [Example 44, (6,8-Dichloro-[1,2,4]triazolo[1,5-a]pyridin-2-yl)-[3-methoxy-4-(4-methyl-imidazol-1-yl)-phenyl]-amine] | 1560
15 | COc1cc(Nc2nc3ccnc(-c4ccc(F)cc4)n3n2)ccc1-n1cnc(C)c1 [Example 45, [5-(4-Fluoro-phenyl)-[1,2,4]triazolo[1,5-c]pyrimidin-2-yl]-[3-methoxy-4-(4-methyl-imidazol-1-yl)-phenyl]-amine] | 1400
16 | COc1cc(Nc2nc3c(-c4ccc(F)cc4)cc(C)cn3n2)ccc1-n1cnc(C)c1 [Example 46, [8-(4-Fluoro-phenyl)-6-methyl-[1,2,4]triazolo[1,5-a]pyridin-2-yl]-[3-methoxy-4-(4-methyl-imidazol-1-yl)-phenyl]-amine] | 180
17 | COc1cc(Nc2nc3cc(C(F)(F)F)ccn3n2)ccc1-n1cnc(C)c1 [Example 47, [3-Methoxy-4-(4-methyl-imidazol-1-yl)-phenyl]-(7-trifluoromethyl-[1,2,4]triazolo[1,5-a]pyridin-2-yl)-amine] | 1340
18 | COc1cc(Nc2nc3c(Cl)cc(C(F)(F)F)cn3n2)ccc1-n1cnc(C)c1 [Example 48, (8-Chloro-6-trifluoromethyl-[1,2,4]triazolo[1,5-a]pyridin-2-yl)-[3-methoxy-4-(4-methyl-imidazol-1-yl)-phenyl]-amine] | 4510
19 | COc1cc(Nc2nc3c(C)cc(Cl)cn3n2)ccc1-n1cnc(C)c1 [Example 49, (6-Chloro-8-methyl-[1,2,4]triazolo[1,5-a]pyridin-2-yl)-[3-methoxy-4-(4-methyl-imidazol-1-yl)-phenyl]-amine] | 1350
20 | COc1cc(Nc2nc3ccc(C)c(C)n3n2)ccc1-n1cnc(C)c1 [Example 50, (5,6-Dimethyl-[1,2,4]triazolo[1,5-a]pyridin-2-yl)-[3-methoxy-4-(4-methyl-imidazol-1-yl)-phenyl]-amine] | 400
21 | COc1cc(Nc2nc3c(-c4ccc(F)cc4)cccn3n2)ccc1-c1ccnc(C)c1 [Example 53, 8-(4-Fluorophenyl)-N-(3-methoxy-4-(2-methylpyridin-4-yl)phenyl)-[1,2,4]triazolo[1,5-a]pyridin-2-amine] | 120
22 | COc1cc(Nc2nc3cccc(-c4ccc(F)cc4)n3n2)ccc1-c1ccnc(C)c1 [Example 54, 5-(4-Fluorophenyl)-N-(3-methoxy-4-(2-methylpyridin-4-yl)phenyl)-[1,2,4]triazolo[1,5-a]pyridin-2-amine] | 110
23 | COc1cc(Nc2nc3n(n2)C(c2ccc(F)cc2)CN(S(C)(=O)=O)C3)ccc1-n1cnc(C)c1 (stereo not drawn) [Example 57, 5-(4-Fluorophenyl)-N-(3-methoxy-4-(4-methyl-1H-imidazol-1-yl)phenyl)-7-(methylsulfonyl)-5,6,7,8-tetrahydro-[1,2,4]triazolo[1,5-a]pyrazin-2-amine] | 431
24 | COc1cc(Nc2nc3n(n2)C(c2ccc(F)cc2)CN(CC(F)(F)F)C3)ccc1-n1cnc(C)c1 (stereo not drawn) [Example 58, 5-(4-fluorophenyl)-N-(3-methoxy-4-(4-methyl-1H-imidazol-1-yl)phenyl)-7-(2,2,2-trifluoroethyl)-5,6,7,8-tetrahydro-[1,2,4]triazolo[1,5-a]pyrazin-2-amine] | 538
25 | COc1cc(Nc2nc3n(n2)CCN(C(=O)C(C)C)C3c2ccc(F)cc2)ccc1-n1cnc(C)c1 (stereo not drawn) [Example 59, 1-(8-(4-Fluorophenyl)-2-(3-methoxy-4-(4-methyl-1H-imidazol-1-yl)phenylamino)-5,6-dihydro-[1,2,4]triazolo[1,5-a]pyrazin-7(8H)-yl)-2-methylpropan-1-one] | 590
26 | COc1cc(Nc2nc3c(C)cnc(N4CCCC4)n3n2)ccc1-n1cnc(C)c1 [Example 60, [3-Methoxy-4-(4-methyl-imidazol-1-yl)-phenyl]-(8-methyl-5-pyrrolidin-1-yl-[1,2,4]triazolo[1,5-c]pyrimidin-2-yl)-amine] | 672
27 | COc1cc(Nc2nc3n(n2)C(c2ccc(Cl)cc2)CC(=O)N3)ccc1-n1cnc(C)c1 (stereo not drawn) [Example 61, 7-(4-Chloro-phenyl)-2-[3-methoxy-4-(4-methyl-imidazol-1-yl)-phenylamino]-6,7-dihydro-4H-[1,2,4]triazolo[1,5-a]pyrimidin-5-one] | 831
28 | COc1cc(Nc2nc3c(-c4ccc(F)c(Cl)c4)cc(C)cn3n2)ccc1-n1cnc(C)c1 [Example 62, [8-(3-Chloro-4-fluoro-phenyl)-6-methyl-[1,2,4]triazolo[1,5-a]pyridin-2-yl]-[3-methoxy-4-(4-methyl-imidazol-1-yl)-phenyl]-amine] | 10
29 | COc1cc(Nc2nc3c(-c4ccc(F)c(F)c4)cc(C)cn3n2)ccc1-n1cnc(C)c1 [Example 63, [8-(3,4-Difluoro-phenyl)-6-methyl-[1,2,4]triazolo[1,5-a]pyridin-2-yl]-[3-methoxy-4-(4-methyl-imidazol-1-yl)-phenyl]-amine] | 10
30 | COc1cc(F)ccc1-c1cc(C)cn2nc(Nc3ccc(-n4cnc(C)c4)c(OC)c3)nc12 [Example 64, [8-(4-Fluoro-2-methoxy-phenyl)-6-methyl-[1,2,4]triazolo[1,5-a]pyridin-2-yl]-[3-methoxy-4-(4-methyl-imidazol-1-yl)-phenyl]-amine] | 73
